Source: patent publication US8030354B2, “Substituted biphenyl GPR40 modulators” (Amgen Inc., priority 2007, dated 2011)

Target: GPR40 (Homo sapiens, UniProt O14842)
Assay: Cell-based aequorin assay (CHO cells stably expressing GPR40 and aequorin)
Parameters: expressed in transfected cells; host or cells: CHO cells stably transfected with GPR40 and aequorin
Details: activation of human GPR40, CHO cells, 0.01% HSA
Procedure, shortened: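 CHO cells stably co-expressing GPR40 and aequorin, loaded with coelenterazine (1 ug/mL, 2 h, room temperature) in H/HBSS with 20 mM Hepes and 0.01% fatty acid-free HSA. Serially diluted compounds added; luminescence recorded over 20 s. EC50 from dose-response of maximum relative light units.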

Sequence of GPR40 (O14842 whole entry): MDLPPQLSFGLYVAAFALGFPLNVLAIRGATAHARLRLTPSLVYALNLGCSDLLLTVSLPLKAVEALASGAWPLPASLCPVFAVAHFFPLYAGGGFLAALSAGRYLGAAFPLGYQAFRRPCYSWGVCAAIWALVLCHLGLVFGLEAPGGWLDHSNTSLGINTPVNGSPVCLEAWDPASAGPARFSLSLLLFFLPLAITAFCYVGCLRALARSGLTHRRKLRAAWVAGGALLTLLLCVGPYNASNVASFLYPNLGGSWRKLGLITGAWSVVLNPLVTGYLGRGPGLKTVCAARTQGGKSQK

Row | EC50 [nM] | Compound
1 | 1000 to 10000 | COc1ccc(F)c(-c2ccc(C(C)Oc3cccc(C(C)CC(=O)O)c3)cc2C(C)(C)C)c1 (single isomer, unassigned) [Example 64.25]
2 | 1000 to 10000 | CCCC(CC(=O)O)c1cccc(OCc2ccc(-c3cc(OC)ccc3F)c(/C=C/C3CC3)c2)c1 (single isomer, unassigned) [Example 67.9, (3R)-3-(3-(((2-((E)-2-Cyclopropylethenyl)-2′-fluoro-5′-(methyloxy)-1,1′-biphenyl-4-yl)methyl)oxy)phenyl)hexanoic acid or (3S)-3-(3-(((2-((E)-2-cyclopropylethenyl)-2′-fluoro-5′-(methyloxy)-1,1′-biphenyl-4-yl)methyl)oxy)phenyl)hexanoic acid]
3 | 1000 to 10000 | COc1ccc(F)c(-c2ccc(COc3cccc([C@@H](CC(=O)O)CC4CC4)c3)cc2[C@@H]2OCCC2(C)C)c1 (single isomer, unassigned) [Example 69.43]
4 | 1000 to 10000 | C=CC(C)(C)C(O)c1cc(COc2cccc(C(CC(=O)O)CC3CC3)c2)ccc1-c1cc(OC)ccc1F (single isomer, unassigned) [Example 69.40]
5 | 1000 to 10000 | CCCCOc1cc(COc2cccc([C@H](C)CC(=O)O)c2)ccc1-c1cc(OCC)ccc1F (single isomer, unassigned) [Example 23, (3R)-3-(3-(((2-(Butyloxy)-5′-(ethyloxy)-2′-fluoro-1,1′-biphenyl-4-yl)methyl)oxy)phenyl)butanoic acid or (3S)-3-(3-(((2-(butyloxy)-5′-(ethyloxy)-2′-fluoro-1,1′-biphenyl-4-yl)methyl)oxy)phenyl)butanoic acid]
6 | 1000 to 10000 | COc1ccc(F)c(-c2ccc(COc3cccc(C(CC(=O)O)CC4CC4)c3)cc2C(=O)C(C)(C)C)c1 (single isomer, unassigned) [Example 69.20, (3R)-4-Cyclopropyl-3-(3-(((2-(2,2-dimethylpropanoyl)-2′-fluoro-5′-(methyloxy)-1,1′-biphenyl-4-yl)methyl)oxy)phenyl)butanoic acid or (3S)-4-cyclopropyl-3-(3-(((2-(2,2-dimethylpropanoyl)-2′-fluoro-5′-(methyloxy)-1,1′-biphenyl-4-yl)methyl)oxy)phenyl)butanoic acid]
7 | 1000 to 10000 | CC[C@H](CC(=O)O)c1cccc(OCc2ccc(-c3cc(OC)ncc3F)c(C3(COC)CCCC3)c2)c1F (single isomer, unassigned) [Example 77.12, (3R)-3-(3-(4-(5-Fluoro-2-methoxypyridin-4-yl)-3-(1-(methoxymethyl)cyclopentyl)benzyloxy)-2-fluorophenyl)pentanoic acid or (3S)-3-(3-(4-(5-fluoro-2-methoxypyridin-4-yl)-3-(1-(methoxymethyl)cyclopentyl)benzyloxy)-2-fluorophenyl)pentanoic acid]
8 | 1000 to 10000 | CCCCOc1cc(COc2cccc(C(C)CC(=O)O)c2)ccc1-c1cccc(F)c1 (single isomer, unassigned) [Example 64.26, (3R)-3-(3-(((2-(butyloxy)-3′-fluoro-1,1′-biphenyl-4-yl)methyl)oxy)phenyl)butanoic acid or (3S)-3-(3-(((2-(butyloxy)-3′-fluoro-1,1′-biphenyl-4-yl)methyl)oxy)phenyl)butanoic acid]
9 | 1000 to 10000 | C=CC(C)(C)C(OC)c1cc(COc2cccc(C(CC)CC(=O)O)c2)ccc1-c1cc(OC)ccc1F (single isomer, unassigned) [Example 78.13]
10 | 100 to 1000 | CCC(C)(C)C(OC)c1cc(COc2cccc(C(CC(=O)O)CC3CC3)c2)ccc1-c1cc(OC)ccc1F (single isomer, unassigned) [Example 69.41, (3R)-4-Cyclopropyl-3-(3-(((2-((1S)-2,2-dimethyl-1-(methyloxy)butyl)-2′-fluoro-5′-(methyloxy)-1,1′-biphenyl-4-yl)methyl)oxy)phenyl)butanoic acid or (3R)-4-cyclopropyl-3-(3-(((2-((1S)-2,2-dimethyl-1-(methyloxy)butyl)-2′-fluoro-5′-(methyloxy)-1,1′-biphenyl-4-yl)methyl)oxy)phenyl)butanoic acid]
11 | 1000 to 10000 | CCCCOc1cc(COc2cccc(C(C)CC(=O)O)c2)ccc1-c1cccc(SC)c1 (single isomer, unassigned) [Example 64.2, (3R)-3-(3-(((2-(Butyloxy)-3′-(methylsulfanyl)-1,1′-biphenyl-4-yl)methyl)oxy)phenyl)butanoic acid or (3S)-3-(3-(((2-(butyloxy)-3′-(methylsulfanyl)-1,1′-biphenyl-4-yl)methyl)oxy)phenyl)butanoic acid]
12 | 1000 to 10000 | C=C[C@H](CC(=O)O)c1cccc(OCc2ccc(-c3cc(OC)ccc3F)c(OCCCC)c2)c1 (single isomer, unassigned) [Example 16, (3S)-3-(3-(((2-(Butyloxy)-2′-fluoro-5′-(methyloxy)-1,1′-biphenyl-4-yl)methyl)oxy)phenyl)-4-pentenoic acid or (3R)-3-(3-(((2-(butyloxy)-2′-fluoro-5′-(methyloxy)-1,1′-biphenyl-4-yl)methyl)oxy)phenyl)-4-pentenoic acid]
13 | 1000 to 10000 | C=CC[C@H](CC(=O)O)c1cccc(OCc2ccc(-c3cc(OC)ccc3F)c(OCCCC)c2)c1 (single isomer, unassigned) [Example 54, (3R)-3-(3-(((2-(Butyloxy)-2′-fluoro-5′-(methyloxy)-1,1′-biphenyl-4-yl)methyl)oxy)phenyl)-5-hexenoic acid or (3S)-3-(3-(((2-(butyloxy)-2′-fluoro-5′-(methyloxy)-1,1′-biphenyl-4-yl)methyl)oxy)phenyl)-5-hexenoic acid]
14 | 1000 to 10000 | CCC(CC(=O)O)c1cc(OCc2ccc(-c3cc(OC)ccc3F)c(C(C)(C)C)c2)ccc1F (single isomer, unassigned) [Example 76.2, (3R)-3-(5-(((2-(1,1-Dimethylethyl)-2′-fluoro-5′-(methyloxy)-1,1′-biphenyl-4-yl)methyl)oxy)-2-fluorophenyl)pentanoic acid or (3S)-3-(5-(((2-(1,1-dimethylethyl)-2′-fluoro-5′-(methyloxy)-1,1′-biphenyl-4-yl)methyl)oxy)-2-fluorophenyl)pentanoic acid]
15 | 100 to 1000 | CCCCCOc1cc(COc2cccc([C@H](C)CC(=O)O)c2)ccc1-c1cc(OC)ccc1F (single isomer, unassigned) [Example 28, (3R)-3-(3-(((2′-Fluoro-5′-(methyloxy)-2-(pentyloxy)-1,1′-biphenyl-4-yl)methyl)oxy)phenyl)butanoic acid or (3S)-3-(3-(((2′-fluoro-5′-(methyloxy)-2-(pentyloxy)-1,1′-biphenyl-4-yl)methyl)oxy)phenyl)butanoic acid]
16 | 1000 to 10000 | COc1ccc(F)c(-c2ccc(COc3cccc([C@@H](CC(=O)O)CC4CC4)c3)cc2S(=O)(=O)C(C)C)c1 (single isomer, unassigned) [Example 69.25, (R)-4-Cyclopropyl-3-{3-[2′-fluoro-5′-methoxy-2-(propane-2-sulfonyl)-biphenyl-4-ylmethoxy]-phenyl}-butyric acid or (S)-4-cyclopropyl-3-{3-[2′-fluoro-5′-methoxy-2-(propane-2-sulfonyl)-biphenyl-4-ylmethoxy]-phenyl}-butyric acid]
17 | 1000 to 10000 | C=C(C)[C@@H](CC(=O)O)c1cccc(OCc2ccc(-c3cc(OC)ccc3F)c(C(C)(C)C)c2)c1 (single isomer, unassigned) [Example 48, (3R)-3-(3-(((2-(1,1-Dimethylethyl)-2′-fluoro-5′-(methyloxy)-1,1′-biphenyl-4-yl)methyl)oxy)phenyl)-4-methyl-4-pentenoic acid or (3S)-3-(3-(((2-(1,1-dimethylethyl)-2′-fluoro-5′-(methyloxy)-1,1′-biphenyl-4-yl)methyl)oxy)phenyl)-4-methyl-4-pentenoic acid]
18 | 1000 to 10000 | CCOc1cccc(-c2ccc(COc3cccc(C(C)CC(=O)O)c3)cc2C(C)(C)C)c1 (single isomer, unassigned) [Example 64.24, (3R)-3-(3-(((2-(1,1-Dimethylethyl)-3′-(ethyloxy)-1,1′-biphenyl-4-yl)methyl)oxy)phenyl)butanoic acid or (3S)-3-(3-(((2-(1,1-dimethylethyl)-3′-(ethyloxy)-1,1′-biphenyl-4-yl)methyl)oxy)phenyl)butanoic acid]
19 | 1000 to 10000 | COCC1(c2cc(COc3cccc(C(CC(=O)O)C4CC4)c3F)ccc2-c2cc(OC)ncc2F)CCCC1 (single isomer, unassigned) [Example 83.30, (3S)-3-(3-(4-(5-Fluoro-2-methoxypyridin-4-yl)-3-(1-(methoxymethyl)cyclopentyl)benzyloxy)-2-fluorophenyl)-3-cyclopropylpropanoic acid or (3R)-3-(3-(4-(5-fluoro-2-methoxypyridin-4-yl)-3-(1-(methoxymethyl)cyclopentyl)benzyloxy)-2-fluorophenyl)-3-cyclopropylpropanoic acid]
20 | 1000 to 10000 | COc1ccc(F)c(-c2ccc(COc3cccc([C@@H](CC(=O)O)C(C)C)c3)cc2C(C)(C)C)c1 (single isomer, unassigned) [Example 52]
21 | 1000 to 10000 | CCC[C@H](CC(=O)O)c1cccc(OCc2ccc(-c3ccc(OC)nc3)c(C(C)(C)C)c2)c1 (single isomer, unassigned) [Example 67.19, (3R)-3-(3-(((3-(1,1-Dimethylethyl)-4-(6-(methyloxy)-3-pyridinyl)phenyl)methyl)oxy)phenyl)hexanoic acid or (3S)-3-(3-(((3-(1,1-dimethylethyl)-4-(6-(methyloxy)-3-pyridinyl)phenyl)methyl)oxy)phenyl)hexanoic acid]

Row | Compound | EC50 [nM]
22 | COc1ccc(F)c(-c2cc(F)c(COc3cccc([C@@H](CC(=O)O)C4CC4)c3)cc2[C@@H]2CCCC2(C)C)c1 (single isomer, unassigned) [Example 66.45] | 100 to 1000
23 | CC1(C)CCC[C@H]1c1cc(COc2cccc([C@@H](CC(=O)O)C3CC3)c2)ccc1-c1cc(C(F)F)ccc1F (single isomer, unassigned) [Example 66.52] | 1000 to 10000
